# Target: T1, CCR2 (Homo sapiens, UniProt P41597)
# T1 construct: host or cells: THP-1 (human monocytic cell line)
# Assay: MCP-1 Receptor Binding Assay in THP-1 Cells
# Conditions: read-out: MCP1B_v3 IC50
# Method: Compounds of the invention were subjected to various representative biological tests. […] MCP-1 Receptor Binding Assay in THP-1 Cells Human monocytic cell line THP-1 cells were obtained from American Type Culture Collection (Manassas, Va., USA). The THP-1 cells were grown in RPMI-1640 (RPMI: Roswell Park Memorial Institute Medium-cell culture growth media) supplemented with 10% fetal bovine serum in a humidified 5% CO2 atmosphere at 37° C. The cell density was maintained between […].
# THP-1 (cells were incubated with 0.5 nM ^125I labeled MCP-1 (Perkin-Elmer Life Sciences, Inc. Boston, Mass.) in the presence of varying concentrations of either unlabeled MCP-1 (R & D Systems, Minneapolis, Minn.) or test compound for 2 hours at 30° C. in a 96 well plate. Cells were then harvested onto a filter plate, dried, and 20 μL of Microscint 20 was added to each well. Plates were counted in a TopCount NXT, Microplate Scintillation & Luminescence Counter (Perkin-Elmer Life Sciences, Inc. Boston, Mass.). Blank values (buffer only) were subtracted from all values and drug treated values were compared to vehicle treated values. 1 μM cold MCP-1 was used for nonspecific binding.
# T1 sequence (P41597 whole entry): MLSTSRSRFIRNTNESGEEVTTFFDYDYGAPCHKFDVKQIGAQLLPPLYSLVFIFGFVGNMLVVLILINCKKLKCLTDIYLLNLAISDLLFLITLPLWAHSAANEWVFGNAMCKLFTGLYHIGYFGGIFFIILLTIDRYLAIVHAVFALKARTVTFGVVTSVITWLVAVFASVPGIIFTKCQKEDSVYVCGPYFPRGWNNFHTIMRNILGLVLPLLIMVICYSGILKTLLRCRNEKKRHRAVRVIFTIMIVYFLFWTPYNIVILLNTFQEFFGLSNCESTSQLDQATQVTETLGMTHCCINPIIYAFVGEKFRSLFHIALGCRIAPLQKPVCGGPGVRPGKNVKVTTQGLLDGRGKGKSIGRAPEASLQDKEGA
row,SMILES,IC50 [nM]
1,"COC1COCCC1N[C@@H]1C[C@H]2CN(C(C)=O)C[C@@]2(C(=O)N2CCc3ncc(C(F)(F)F)cc3C2)C1 (relative stereo) [Example 66, 1-((3aR,5R,6aR)-5-(((3S*,4S*)-3-Methoxytetrahydro-2H-pyran-4-yl)amino)-3a-(3-(trifluoromethyl)-5,6,7,8-tetrahydro-1,6-naphthyridine-6-carbonyl)hexahydrocyclopenta-[c]pyrrol-2(1H)-yl)ethanone]",400
2,"COC1COCCC1N[C@@H]1C[C@H]2CN(CCc3ccccc3)C[C@@]2(C(=O)N2CCc3ncc(C(F)(F)F)cc3C2)C1 (relative stereo) [Example 102, ((3aR,5R,6aR)-5-(((3S*,4S*)-3-Methoxytetrahydro-2H-pyran-4-yl)amino)-2-phenethyloctahydrocyclopenta[c]pyrrol-3a-yl)(3-(trifluoromethyl)-7,8-dihydro-1,6-naphthyridin-6(5H)-yl)methanone]",1000
3,"CCN(CC)CCOC(=O)N1C[C@@H]2C[C@@H](NC3CCOCC3OC)C[C@]2(C(=O)N2CCc3ccc(C(F)(F)F)cc3C2)C1 (relative stereo) [Example 41, (3aR,5R,6aR)-2-(Diethylamino)ethyl 5-(((3S*,4S*)-3-methoxytetrahydro-2H-pyran-4-yl)amino)-3a-(7-(trifluoromethyl)-1,2,3,4-tetrahydroisoquinoline-2-carbonyl)hexahydrocyclopenta[c]pyrrole-2(1H)-carboxylate]",10
4,"CCCOC(=O)N1C[C@@H]2C[C@@H](NC3CCOCC3OC)C[C@]2(C(=O)N2CCc3ncc(C(F)(F)F)cc3C2)C1 (relative stereo) [Example 35, (3aR,5R,6aR)-Propyl 5-(((3S*,4S*)-3-methoxytetrahydro-2H-pyran-4-yl)amino)-3a-(3-(trifluoromethyl)-5,6,7,8-tetrahydro-1,6-naphthyridine-6-carbonyl)hexahydro-cyclopenta[c]pyrrole-2(1H)-carboxylate]",60
5,"COC1COCCC1N[C@@H]1C[C@H]2CN(C(=S)NCc3ccccc3)C[C@@]2(C(=O)N2CCc3ncc(C(F)(F)F)cc3C2)C1 (relative stereo) [Example 26, (3aR,5R,6aR)-N-Benzyl-5-(((3S*,4S*)-3-methoxytetrahydro-2H-pyran-4-yl)amino)-3a-(3-(trifluoromethyl)-5,6,7,8-tetrahydro-1,6-naphthyridine-6-carbonyl)hexahydrocyclopenta-[c]pyrrole-2(1H)-carbothioamide]",200
6,"CNC(=S)N1C[C@@H]2C[C@@H](N(C(=S)NC)C3CCOCC3OC)C[C@]2(C(=O)N2CCc3ncc(C(F)(F)F)cc3C2)C1 (relative stereo) [Example 28, (3aR,5R,6aR)-5-(1-((3S*,4S*)-3-Methoxytetrahydro-2H-pyran-4-yl)-3-methylthioureido)-N-methyl-3a-(3-(trifluoromethyl)-5,6,7,8-tetrahydro-1,6-naphthyridine-6-carbonyl)hexahydrocyclopenta[c]pyrrole-2(1H)-carbothioamide]",250
7,"CO[C@@H]1COCC[C@H]1N[C@@H]1C[C@H]2CN(C(N)=O)C[C@@]2(C(=O)N2CCc3ncc(C(F)(F)F)cc3C2)C1 (relative stereo) [Example 5, (3aR,5R,6aR)-5-(((3S*,4R*)-(3-Methoxytetrahydro-2H-pyran-4-yl)amino)-3a-(3-(trifluoromethyl)-5,6,7,8-tetrahydro-1,6-naphthyridine-6-carbonyl)hexahydrocyclopenta-[c]pyrrole-2(1H)-carboxamide]",1350
8,"COC1COCCC1N[C@@H]1C[C@H]2CN(C(=O)OCCC#N)C[C@@]2(C(=O)N2CCc3ncc(C(F)(F)F)cc3C2)C1 (relative stereo) [Example 52, (3aR,5R,6aR)-2-Cyanoethyl 5-(((3S*,4S*)-3-methoxytetrahydro-2H-pyran-4-yl)amino)-3a-(3-(trifluoromethyl)-5,6,7,8-tetrahydro-1,6-naphthyridine-6-carbonyl)hexahydrocyclopenta[c]pyrrole-2(1H)-carboxylate]",130

# From patent US9024017B2, “Octahydro-cyclopentapyrrolyl antagonists of CCR2” (Janssen Pharmaceutica NV, priority 2012, dated 2015)
